Source: patent US12685709B2, “Solid solution compositions and use in chronic inflammation” (Infirst Healthcare Limited, priority 2011, dated 2026)
Where “and” joins values, the source holds several entries; their conditions need not be identical. Equal values may be shown once.

Assays:
[1] = test system: U937 monocyte cell line differentiated into macrophages; details: % therapeutic compound taken up by macrophages after 45 minutes incubation, HPLC; N=2
Experimental: Cultures of U937 monocyte cell line were grown in RPMI-1640 supplemented with 10% fetal calf serum (FCS) until the cells reached 90% confluent monolayer. These cells were then treated with PMA and incubated in a 37° C. incubator under 5% carbon dioxide until the cells differentiated into macrophages. […] After incubation for 45 minutes the test solution supernatants were removed and saved for analysis, and the cells were then washed in PBS several times and lysed using two cycles of freeze-thawing. Therapeutic compound concentration present in the test solution, test solution supernatant, and cell lyste fractions was measured by HPLC. The percentage therapeutic compound taken up by the macrophages was calculated using the following formula: % therapeutic compound adsorbed=100×(compound mass recovered from cell lysate)/(compound mass delivered in test solution−compound mass recovered from test solution supernatant).

[2] = test system: TBS-induced colitis murine model; experiment: Animal model for inflammatory bowel disease (TNBS-induced colitis); format: in vivo, C57BI/6 male mice; details: for Mean Colon Length / Mean Colon Weight / Mean Animal Weight: TNBS colitis; for Mean Colon Length / Mean Colon Weight / Endoscopy Colitis Severity Score Day 5: day 5; for Mean Animal Weight: oral dosing day -1 to day 5, Prednisolone 3 mg/kg, ibuprofen 20 mg/kg, BC1054-20 20 mg/kg, BC1054-30 30 mg/kg; for Endoscopy Colitis Severity Score Day 3 / Endoscopy Colitis Severity Score Day 5: video endoscopy, scale 0 to 4
Experimental: To assess the effectiveness of a pharmaceutical composition disclosed herein in treating an inflammatory bowel disease, experiments were conducted using a […] colitis murine model.
C57BI/6 male mice (6-7 weeks old) were divided into seven experimental groups containing at least ten animals each. On day 0, colitis was induced in mice from Groups B-G by intrarectal administration of 100 μL of TNBS (4 mg) in 50% ethanol under isoflurane anesthesia. Animals were dosed either once or three times a day from day −1 to day 5 with one of seven different treatments. Group A was a control in which each mouse was orally administered ethanol vehicle only. Group B was a control in which each mouse was orally administered 1% methylcellulose vehicle only. Group C was a control in which each mouse was orally administered solvent/adjuvant vehicle only (gavage of 10% ethanol and 90% linseed oil). Group D was a control in which each mouse was orally administered 3 mg/kg of Prednisolone. Group E was a control in which each mouse was orally administered 20 mg/kg of ibuprofen suspended in 1% methylcellulose (1 ml/kg) (no adjuvant). Group F was the experimental group in which each mouse was administered a pharmaceutical composition disclosed herein (BC1054-20) comprising 20 mg/kg of ibuprofen, 10% ethanol, and 90% linseed oil. Group G was the experimental group in which each mouse was administered a pharmaceutical composition disclosed herein (BC1054-30) comprising 30 mg/kg of ibuprofen, 10% ethanol, and 90% linseed oil. All animals were weighed daily and assessed visually for the presence of diarrhea and/or bloody stool. On day 3 and on day 5 colitis severity was assessed in all animals using video endoscopy, where images were taken and colitis severity scored visually by a blinded observer on a scale from 0 to 4 as follows: 0, normal; 1, loss of vascularity; 2, loss of vascularity and friability; 3, friability and erosions; and 4, ulcerations and bleeding. Following endoscopy on day 5, animals were sacrificed and the colon removed and its length and weight measured. Serum samples were obtained and the colon was fixed in 10% formalin. An additional piece of colon tissue was collected, weighed, and snap frozen in liquid nitrogen.

[3] = test system: intestinal erosion murine model; experiment: Animal model for intestinal erosion (gastric irritation score); format: in vivo, Sprague-Dawley rats; details: for Mean Ulceration Score: 4 hours after treatment, score 0-4
Experimental: To assess whether a pharmaceutical composition disclosed herein reduced gastric irritation, experiments were conducted using an intestinal erosion murine model.
Sprague-Dawley rats were divided into seven experimental groups containing five animals each. After fasting overnight, the animals were challenged with one with one of seven different treatments. Group A was a control in which each mouse was orally administered 1% methylcellulose/0.5% polysorbate 80 vehicle only. Group B was a control in which each mouse was orally administered solvent/adjuvant vehicle only (gavage of 10% ethanol and 90% linseed oil). Group C was a control in which each mouse was orally administered 150 mg/kg aspirin. Group D was a control in which each mouse was orally administered 100 mg/kg ibuprofen suspended in 1% methylcellulose/0.5% polysorbate 80. Group E was the experimental group in which each mouse was administered a pharmaceutical composition disclosed herein (BC1054-100) comprising 100 mg/kg of ibuprofen, 10% ethanol, and 90% linseed oil. Group F was a control in which each mouse was orally administered 100 mg/kg ibuprofen suspended in 1% methylcellulose/0.5% polysorbate 80. Group G was the experimental group in which each mouse was administered a pharmaceutical composition disclosed herein (BC1054-200) comprising 200 mg/kg of ibuprofen, 10% ethanol, and 90% linseed oil. Animals were sacrificed 4 hours after treatment and the stomachs were examined for degree of hemorrhage and severity of mucosal erosive lesions. Gastric irritation was scored as follows: 0, no lesions; 1, hyperemia; 2, one or two slight lesions; 3, more than two slight lesions or severe lesions; and 4, very severe lesions. A score of 50% or more relative to Group C (aspirin-treated control group), which was set to 100%, was considered a positive score for gastric irritation.

[4] = test system: α-collagen antibody induced arthritis (ACAIA) murine model; experiment: Alpha-collagen antibody induced arthritis (ACAIA) model for systemic arthritis; format: in vivo, Male BALB/c mice; details: for mean paw thickness compared to vehicle-treated Group 1M (significance): ANOVA with Tukey post hoc
Experimental: To assess the effectiveness of a pharmaceutical composition disclosed herein in treating arthritis, experiments were conducted using an α-collagen antibody induced arthritis (ACAIA) murine model that mimics a systemic arthritis like rheumatoid arthritis.
Male BALB/c mice were divided into eight groups, each containing 10 animals. To induce arthritic symptoms, mice from all eight groups were intravenously injected with 200 μL of an antibody solution comprising a 2 mg cocktail of four α-collagen II monoclonal antibodies (ARTHRITOMAB™, MD Biosciences) on study day 0 (study commencement), followed by a 200 μL intraperitoneal injection of a solution containing 100 μg lipopolysaccharide (LPS) on study day 3. Each group was subjected daily to a control or test treatment administered from day 0-11 as follows: Group 1 mice (1M) were treated orally with a vehicle preparation containing 1% methyl cellulose administered thrice daily; Group 2 mice (2M) were treated intraperitoneally with a positive control preparation containing 10 mg/kg etanercept (ENBREL®, Wyeth) administered once daily; Group 3 mice (3M) were treated orally with a 20 mg/kg test liquid formulation comprising ibuprofen and rapeseed oil (BC1054 LF-RO) administered once daily; Group 4 mice (4M) were treated orally with a 20 mg/kg test liquid formulation comprising ibuprofen and rapeseed oil (BC1054 LF-RO) administered thrice daily; Group 5 mice (5M) were treated orally with a 20 mg/kg test liquid formulation comprising ibuprofen and a glyceryl monolinoleate (MAISINE™ 35-1, Gattefosse) (BC1054 LF-MA) administered thrice daily; Group 6 mice (6M) were treated orally with a 20 mg/kg test solid formulation comprising ibuprofen and theobroma oil (BC1054 LF-TO) administered thrice daily; Group 7 mice (7M) were treated orally with a control preparation 1 comprising 20 mg/kg of ibuprofen administered thrice daily; and Group 8 mice (8M) were treated orally with a 20 mg/kg test solid formulation comprising ibuprofen and a waxy solid having a melting point of between 37° C. to 41° C. and comprising a mixture of saturated C10-C18 triglycerides ([…]® 39/01, Gattefosse) (BC1054 LF-GE) administered thrice daily (Table 6). The dose administered was calculated based on the assumption that each animal weighed, on average, 20 g. A fixed volume of 100 μL was administered to each mouse, except those animals receiving the positive control (2M) were administered 200 μL.
Arthritic development and clinical examinations were monitored in all mice on study day 0 shortly before arthritis induction and subsequently on study days 3-7, 9, 10 and 12 (study termination). To access arthritic development, both an arthritis score and paw thickness (plethysmography) measurements were obtained. The arthritis score was based on visual assessment of arthritis reactions using a 0-4 scale in ascending order of severity with Grade 0 indicating no arthritis reaction; Grade 1 indicating mild, but definite redness and swelling of the ankle/wrist or apparent redness and swelling limited to individual digits, regardless of the number of affected digits; Grade 2 indicating moderate to severe redness and swelling of the ankle/wrist; Grade 3 indicating redness and swelling of the entire paw including digits; and Grade 4 indicating maximally inflamed limb with involvement of multiple joints. Paw thickness was measured for both hind paws just above the foot pad and below the calcaneum using a dial caliper (Kroeplin, Munich, Germany). Mean values for paw thickness measurements were determined, and where appropriate, analysis of the data by ANOVA with Tukey post hoc analysis was applied to determine significance of treatment effects.
Clinical examinations included changes in body weight, condition of skin, fur, eyes, mucous membranes, occurrence of secretions and excretions (e.g. diarrhea), and autonomic activity (e.g. lacrimation, salivation, piloerection, pupil size, unusual respiratory pattern). […]

[5] = statistical comparison, doses as E9
[6] = day 6, 20 mg/kg PO thrice daily (Groups 4M-8M)

Compound: CC(C)Cc1ccc(C(C)C(=O)O)cc1 (stereo not drawn) [Formulation C, ibuprofen free acid]
- Mean Mass Compound Uptake [1]: 0.4%

Compound: C[C@]12C=CC(=O)C=C1CC[C@@H]1[C@@H]2[C@@H](O)C[C@@]2(C)[C@H]1CC[C@]2(O)C(=O)CO [Prednisolone]
- Mean Colon Length ([2]; doses as E9): 8.4 cm
- Mean Colon Weight ([2]; doses as E9): 267 mg
- Mean Animal Weight [2]: 23.33 g
- mean colitis scores compared to Group B (TNBS-treated control group) [2, 5]: statistically significant reduced mean colitis scores on both day 3 and day 5
- mean colon length compared to Group B (TNBS-treated control group) [2, 5]: statistically significant increase in mean colon length
- Endoscopy Colitis Severity Score Day 3 ([2]; doses as E9): 2.3^7
- Endoscopy Colitis Severity Score Day 5 ([2]; doses as E9): 1.7^8

Compound: CC(=O)Oc1ccccc1C(=O)O [aspirin]
- % Aspirin Erosion ([3]; Group C, 150 mg/kg aspirin, set to 100%): (100) %
- Mean Ulceration Score ([3]; Group C, 150 mg/kg oral): 4

Compound: CC(C)Cc1ccc(C(C)C(=O)O)cc1 (stereo not drawn) [ibuprofen]
- % Aspirin Erosion ([3]; 100 mg/kg ibuprofen (Groups D, E), relative to Group C, 50% or more = positive score for gastric irritation): 75% and 75^1%
- Mean Ulceration Score ([3]; 100 mg/kg ibuprofen oral (Groups D, E)): 3
- % Aspirin Erosion ([3]; 200 mg/kg ibuprofen (Groups F, G), relative to Group C, 50% or more = positive score for gastric irritation): 95% and 95^1%
- Mean Ulceration Score ([3]; 200 mg/kg ibuprofen oral (Groups F, G)): 3.8
- Mean Colon Length ([2]; doses as E9): 7.9 cm
- Mean Colon Weight ([2]; doses as E9): 267 mg
- Mean Animal Weight [2]: 23.82 g
- Endoscopy Colitis Severity Score Day 3 ([2]; doses as E9): 2.7
- Endoscopy Colitis Severity Score Day 5 ([2]; doses as E9): 2.2
- mean paw thickness compared to vehicle-treated Group 1M (significance) ([4]; 20 mg/kg PO thrice daily (Groups 4M-8M)): No significant differences were observed
- Mean Rear Paw Thickness ([4]; day 0, 20 mg/kg PO thrice daily (Groups 4M-8M), 20 mg/kg): 1.71±0.02 mm and 1.71 mm
- Mean Rear Paw Thickness ([4]; day 3, 20 mg/kg PO thrice daily (Groups 4M-8M)): 1.72 mm
- Mean Rear Paw Thickness ([4]; day 4, 20 mg/kg PO thrice daily (Groups 4M-8M)): 1.64 mm
- Mean Rear Paw Thickness ([4]; day 5, 20 mg/kg PO thrice daily (Groups 4M-8M)): 1.71 mm
- Arthritis incidence [4, 6]: 8/10
- Mean Rear Paw Thickness [4, 6]: 1.90 mm
- Mean Rear Paw Thickness ([4]; day 7, 20 mg/kg PO thrice daily (Groups 4M-8M), 20 mg/kg): 2.15±0.10 mm and 2.15 mm
- Mean Rear Paw Thickness ([4]; day 9, 20 mg/kg PO thrice daily (Groups 4M-8M)): 2.08 mm
- Mean Rear Paw Thickness ([4]; day 10, 20 mg/kg PO thrice daily (Groups 4M-8M)): 2.07 mm
- Mean Rear Paw Thickness ([4]; day 12, 20 mg/kg PO thrice daily (Groups 4M-8M), 20 mg/kg): 2.02±0.08 mm and 2.02 mm

Compound: Etanercept
- mean paw thickness compared to vehicle-treated Group 1M (significance) ([4]; once daily dosing (Groups 2M, 3M)): significantly decreased paw volume compared to the positive control mice on days 9, 10 and 12
- Mean Rear Paw Thickness ([4]; day 0, once daily (Etanercept 10 mg/kg IP, Group 2M; BC1054 LF-RO 20 mg/kg PO, Group 3M)): 1.70±0.02 mm and 1.70 mm
- Mean Rear Paw Thickness ([4]; day 3, once daily (Etanercept 10 mg/kg IP, Group 2M; BC1054 LF-RO 20 mg/kg PO, Group 3M)): 1.73 mm
- Mean Rear Paw Thickness ([4]; day 4, once daily (Etanercept 10 mg/kg IP, Group 2M; BC1054 LF-RO 20 mg/kg PO, Group 3M)): 1.64 mm
- Mean Rear Paw Thickness ([4]; day 5, once daily (Etanercept 10 mg/kg IP, Group 2M; BC1054 LF-RO 20 mg/kg PO, Group 3M)): 1.63 mm
- Mean Rear Paw Thickness ([4]; day 6, once daily (Etanercept 10 mg/kg IP, Group 2M; BC1054 LF-RO 20 mg/kg PO, Group 3M)): 1.96±0.05 mm and 1.96 mm
- Arthritis incidence ([4]; day 6, once daily dosing (Groups 2M, 3M)): 9/10
- Mean Rear Paw Thickness ([4]; day 7, once daily (Etanercept 10 mg/kg IP, Group 2M; BC1054 LF-RO 20 mg/kg PO, Group 3M)): 1.95 mm
- Mean Rear Paw Thickness ([4]; day 9, once daily (Etanercept 10 mg/kg IP, Group 2M; BC1054 LF-RO 20 mg/kg PO, Group 3M)): 1.88 mm
- Mean Rear Paw Thickness ([4]; day 10, once daily (Etanercept 10 mg/kg IP, Group 2M; BC1054 LF-RO 20 mg/kg PO, Group 3M)): 1.80 mm
- Mean Rear Paw Thickness ([4]; day 12, once daily (Etanercept 10 mg/kg IP, Group 2M; BC1054 LF-RO 20 mg/kg PO, Group 3M)): 1.77±0.02 mm and 1.77 mm
- Arthritis incidence ([4]; day 12, once daily dosing (Groups 2M, 3M)): 1/10
